Legend:
H9c2 myocardial cells = test: Hypoxia/reoxygenation injury of H9c2 myocardial cells, LDH release; assay type: cell-based; conditions: H9c2, hypoxia 8 h / reoxygenation 12 h; telaprevir 10 μM; vs Hypoxia, FIG. 4
Procedure: H9c2 myocardial cells were purchased from the Xiangya Cell Bank of Central South University.
Cell culture method: Following a conventional cell culture method, the above cells were cultured in a DMEM medium (containing 10% of fetal bovine serum). When the cells fused and grew to 80-90%, the cells were digested with a trypsin. After the cells shrank and became round and the intercellular space was obvious, the digestion was immediately terminated with a medium, the cells were dispersed and blown evenly into a single suspension state, passaged in bottles, and cultured in a 37° C. cell incubator containing 5% of CO2. […]
Cell injury was detected by an LDH release rate.
The measurement followed the operating instructions of a commercially available lactate dehydrogenase kit (Shanghai Beyotime Biotechnology Co., Ltd., China). […] The absorbance of the sample was measured at 490 nm. Calculation: LDH release rate of cells (%)=(absorbance of the drug treatment group-absorbance of the control group)/(absorbance of the maximum enzyme release group-absorbance of the control group)×100%. When the absorbance value of each group was calculated, the absorbance value of the background blank control group was first subtracted.

SH-SY5Y nerve cells = test: NMDA induced nerve cell injury model of SH-SY5Y cells, MTS viability; assay type: cell-based; conditions: 1 mM NMDA 30 minutes, then 24 h culture; telaprevir 1, 5, 10 μM; FIG. 5C
Procedure: SH-SY5Y nerve cells were purchased from the Xiangya Cell Bank of Central South University.
Cell culture method: Following a conventional cell culture method, the above SH-SY5Y nerve cells were cultured in an RPMI 1640 medium (containing 20% of fetal bovine serum). When the cells fused and grew to 80-90%, the cells were digested with a trypsin. After the cells shrank and became round and the intercellular space was obvious, the digestion was immediately terminated with a medium, the cells were dispersed and blown evenly into a single suspension state, passaged in bottles, and cultured in a 37° C. cell incubator containing 5% of CO2.
The SH-SY5Y cells at the fusion rate of 80-90% or more can be seeded on plates. […]
Cell viability was detected by MTS.
The measurement followed the operating instructions of a commercially available MTS kit (Promega (Beijing) Biotech Co., Ltd.). […] The absorbance of the cells at 490 nm was measured by enzyme-linked immunosorbent assay (the absorbance was controlled at 0.7-1.2), where the absorbance value reflected relative cell viability. Calculation: cell viability (%)=absorbance of the drug group/absorbance of the control group×100%. When the absorbance value of each group was calculated, the absorbance value of the background blank control group was first subtracted.

CCC[C@H](NC(=O)[C@@H]1[C@H]2CCC[C@H]2CN1C(=O)[C@@H](NC(=O)[C@@H](NC(=O)c1cnccn1)C1CCCCC1)C(C)(C)C)C(=O)C(=O)NC1CC1 [telaprevir]
release of LDH in the myocardial cell medium (LDH release rate) (H9c2 myocardial cells): significantly reduce | cell viability (MTS) of NMDA treated SH-SY5Y cells (SH-SY5Y nerve cells): significantly inhibit a decrease

Reference: patent US20240335439A1, “USE OF AND METHOD FOR TELAPREVIR IN PREPARATION OF DRUG FOR TREATING AN ISCHEMIA/REPERFUSION INJURY AND CYTOPROTECTIVE DRUG” (THE THIRD XIANGYA HOSPITAL OF CENTRAL SOUTH UNIVERSITY, priority 2021, published 2024)
